The source of these data is US20160058712A1, “3-HYDROXYPTEROSTILBENE AND THERAPEUTIC APPLICATIONS THEREOF” (priority 2014, published 2016).

Data set [1] relates to HCT-116 cells. Put plainly: MTT cell viability assay, HCT116. The note with it: Homo sapiens; HCT-116, MTT, 24 h. It counts as cell-based. The protocol: (§1) The human colon cancer cell lines COLO 205, HCT116 and HT29 were purchased from the American Type Culture Collection (Rockville, Md.). Cell lines were grown in RPMI1640 supplemented with 10% heat inactivated fetal bovine serum (GIBCO BRL, Grand Island, N.Y.), 100 units/mL of penicillin, 100 μg/mL of streptomycin), 2 mM L-glutamine (GIBCO BRL, Grand Island, N.Y.), and were kept at 37° C. in a humidified 5% CO2 incubator. Pterostilbene and 3-HPT were dissolved in dimethyl sulfoxide (DMSO, as final concentration of 0.05%). Cells were treated with 0.05% DMSO as vehicle control.
(§2) Cell viability was assayed by 3(4,5-dimethylthiazol-2-yl)-2,5-diphenyltetrazolium bromide (MTT). Briefly. COLO 205, HCT116 and HT29 cells were plated at a density of 2×10^2 cells/mL into 96 well plates. After overnight growth, cells were treated with a series of concentrations of pterostilbene or 3-hydroxypterostilbene for 24 h. The final concentrations of DMSO in the culture medium were <0.05%. At the end of treatment, 0.2% MTT was added and cells were incubated for a further 4 h. Cell viability was determined by scanning with an ELISA reader with a 570 nm filter.
On the technique in general: Tetrazolium dyes change colour on reduction, which living cells bring about.

For data set [2], the system named is COLO 205 cells. The data set is described as follows: Chloroquine (CQ) pretreatment, MTT viability and subG1 analysis. It counts as cell-based. Particulars: COLO 205, 25 μM CQ 1 h then 50 μM for 24 h. How it is done: Cells were pretreated with 25 μM CQ for 1 h before treatment with 50 μM of pterostilbene or 3-hydroxypterostilbene for 24 h. Cell viability was determined by MTT assay. SubG1 cell population (%) was analyzed and quantified after Propidium iodide (PI) staining followed by flow cytometry.

Data set [3] concerns PC-3 cell lines. The data set is described as follows: Microscopic morphological changes of PC-3 cells. In kind it is cell-based, human. Particulars: PC-3, 2.5-20 μM, 100× phase contrast. The protocol:
The morphological changes evident in PC-3 cell lines treated with graded concentrations of 3-HPT (2.5 μM, 5 μM, 10 μM and 20 μM of 3-HPT) as viewed microscopically (100× under inverted stage microscope equipped with phase contrast) indicated cell cytotoxicity starting at a concentration of 5 μM 3-HPT (FIG. 2).

The test system of data set [4] is PC-3 cells. Put plainly: Detection of autophagy (GFP-LC3 autophagosomes, Beclin-1/LC3 Western blot). It counts as cell-based, human. Particulars: PC-3, 10 μM. How it is done:
Photographs were obtained with a fluorescence microscope (Axioscop, Carl Zeiss, Thomwood, N.Y.) equipped with a mercury 100 W lamp, 490 nm band pass blue excitation filters, a 500 nm dichroic mirror and a 515 nm long pass barrier filter. The autophagy induced by 3-HPT in PC-3 cells was also further confirmed by the Western Blotting analysis of Beclin-1, LC3-I, LC3-II, Actin protein expression in PC-3 cells after 10 μM 3-HPT treatment at different time intervals (FIG. 9). The following conclusions were drawn based on aforesaid experimental studies. • 1. […] 3-Hydroxypterostilbene induced the intrinsic apoptotic pathway and extrinsic apoptotic pathway in PC-3 cells. • 3. […] 3′-Hydroxypterostilbene has significant therapeutic potential for the treatment of human prostate cancer.
For orientation: In western blotting, separated proteins are transferred to a membrane and probed.

Data set [5] concerns PC-3 cells. Put plainly: DNA fragmentation by agarose gel electrophoresis. In kind it is cell-based, human. Particulars: PC-3, 0-20 μM, 48 hr, 2.0% agarose gel.
Data set [6] has as its system COLO 205 cells. Put plainly: Mitochondrial membrane potential by DiOC6 flow cytometry. In kind it is cell-based, human. The note with it: COLO 205, 50 μM, 15 min; shifted from 224. The protocol:
(§3) For mitochondrial membrane potential and ROS production, COLO 205 cells were treated as described under Example III for 15 min, and then DiOC6 [3,3′-dihexyloxacarbocyanine iodide] (40 nM) or DCFHDA [2′,7′-dichlorodihydrofluorescein diacetate] (20 μM) was added to the medium for a further 30 min at 37° C. After washing with PBS, the fluorescence intensity was determined by FAC Scan cytometry. The DiOC6 fluorescence intensity shifted to the left from 224 to 117 and 75 in pterostilbene and 3-HPT induced apoptotic COLO 205 cells, respectively. […] The role of ROS in the induction of apoptosis is well recognized. […] The imbalance of ROS concentrations could play an important role as an early mediator in 3-HPT induced apoptosis.
(In general: A flow cytometer gives signals particle by particle.)

The subject of data set [7] is HT-29 cells. The data set is described as follows: MTT cell viability assay, HT29. In kind it is cell-based. The note with it: Homo sapiens; HT-29, MTT, 24 h. How it is done:
as §1, §2

Data set [8] concerns multi drug resistant and BCR-ABL-expressing leukemia cells. Particulars: Tolomeo et al. 2005; cited from earlier work.
The subject of data set [9] is caspase 3, 8 and 9 in PC-3 cells. Put plainly: Fluorometric caspase 3, 8 and 9 activity in PC-3 cells. In kind it is cell-based, human. The note with it: PC-3, 0-20 μM, 48 hours.
For data set [10], the system named is COLO 205 cells. Put plainly: ROS production by DCFHDA flow cytometry. In kind it is cell-based, human. The note with it: COLO 205, 50 μM, 15 min; from 114. How it is done:
as §3

Data set [11] deals with PC-3 cells. The data set is described as follows: Mitochondrial membrane potential by DiOC6 flow cytometry in PC-3 cells. It counts as cell-based, human. Particulars: PC-3, 10 and 20 μM, 48 hr. How it is done:
As a measure of down-stream check points in the mammalian apoptotic pathways, the potential of 3-HPT to cause mitochondrial dysfunction and activation of the caspase pathways was further evaluated. PC-3 cells were cultured in serum-free RPMI containing 0, 2.5, 5, 10, or 20 μM of 3-HPT for 48 hr, respectively. Then, cells were stained with DiOC6 and analyzed by flow cytometry.

`COc1cc(/C=C/c2ccc(O)c(O)c2)cc(OC)c1` [3-hydroxypterostilbene, 3,4-dihydroxy-3′,5′-dimethoxy-trans-stilbene]: the values for the IC50 in data set [1] and in data set [7] were 40.2 ± 0.6 µM and 70.9 ± 1 µM, respectively. Moreover, the “cytotoxicity after CQ pretreatment” value in [2] was “significant increase cytotoxicity”. For the same molecule, the “concentration at which cell cytotoxicity starts (morphological changes)” value in data set [3] is 5 μM. In [4], the “autophagy (Beclin-1, LC3 expression, autophagosome formation)” value was “induced autophagic cell death by increasing the Beclin-1, LC3 protein expression and autophagosome formation”. In addition, the DNA fragmentation entry in data set [5] is on record as “indicated apoptotic cells death”. Further, in [6], the “DiOC6 fluorescence intensity (mitochondrial membrane potential)” value was 75. For the same molecule, the “apoptosis induction in leukemia cells” value in data set [8] is recorded as “effective apoptosis-inducing agents”. Besides, the “caspases activity (caspase 3, 8 and 9)” value in [9] is on record as “initiation of caspases activity”. In addition, the “mean DCFHDA fluorescence intensity (ROS)” value in data set [10] is recorded as 38. In addition, the mitochondrial membrane potential entry in [11] is “significant reduction”.

Usually IC50 stands for the point on the concentration scale where inhibition reaches its midpoint. A high value points to lower potency.
